PubChem BioAssay (NCI)
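These data come from cells grown in 96-well plates and exposed to compound for 48 hours at five concentrations. The concentration for 50% growth inhibition is given as GI50. TGI is the concentration that stops growth completely.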

Key:
Assay in all cases: NCI tumour cell line growth inhibition, 48 h
[1] = system: A498 renal
[2] = system: A549 NSCLC
[3] = system: DU-145 prostate
[4] = system: M14 melanoma
[5] = system: MCF7 breast
[6] = system: SK-MEL-28 melanoma
[7] = system: SN12C renal
[8] = system: SW-620 colon
[9] = system: HOP-62 NSCLC
[10] = system: HOP-92 NSCLC

Row | Structure (SMILES) | GI50 [1] [µM] | TGI [1] [µM] | GI50 [2] [µM] | TGI [2] [µM] | GI50 [3] [µM] | TGI [3] [µM] | GI50 [4] [µM] | TGI [4] [µM] | GI50 [5] [µM] | TGI [5] [µM] | GI50 [6] [µM] | TGI [6] [µM] | GI50 [7] [µM] | TGI [7] [µM] | GI50 [8] [µM] | TGI [8] [µM] | TGI [9] [µM] | TGI [10] [µM] | GI50 [9] [µM] | GI50 [10] [µM]
1 | COc1cc2c(cc1C)NC(=O)/C2=C\c1cccc(Oc2ccccc2)c1 | 10.5 | 22.5 | 20.6 | > 100 | 13.5 | 27 | 16.6 | 31 | 6.73 | 24 | 18.1 | 34.9 | 13.2 | 25.9 | 16.1 | 32.9 | – | – | – | –
2 | CCCCS(=O)(=O)CCC(N)C(=O)O (stereo not given) | – | > 100 | – | > 100 | – | > 100 | – | > 100 | – | > 100 | – | > 100 | – | > 100 | – | > 100 | > 100 | – | – | –
3 | CN(C)CCNC(=O)c1cccc2c1nc(-c1ccccc1)c1ccccc12 | – | 16.9 | – | 15 | – | – | – | 4.34 | – | – | – | 21.3 | – | 15.2 | – | 15.5 | 18.5 | 9.24 | – | –
4 | CN1CCN(c2ccc3nc(-c4ccc5nc(-c6ccc(OCCC(C)(C)C)cc6)[nH]c5c4)[nH]c3c2)CC1 | 17.5 | 35.1 | 4.69 | 17.7 | 1.83 | 3.4 | 2.39 | 6.53 | – | – | 3.03 | 9.43 | 4 | 15.4 | 2.12 | 3.96 | 26.8 | 33.2 | 7.1 | 14.3
5 | C[C@]1(CO)CCC[C@@]2(C)C1CC[C@H]1CC3C[C@]12CC[C@]3(C)O (stereo not given in full) | – | – | – | > 100 | – | – | – | > 100 | – | – | – | > 100 | – | > 100 | – | > 100 | > 100 | > 100 | – | –
6 | O=CC[C@H]1CCc2ccccc2C12CCC(=O)CC2 | – | > 100 | – | > 100 | – | – | – | > 100 | – | – | – | – | – | > 100 | – | > 100 | > 100 | > 100 | – | –
7 | CC(=O)c1ccc(NC(=O)C(=O)Nn2c(=S)[nH]c3ccccc3c2=O)cc1 | – | > 100 | – | > 100 | – | – | – | > 100 | – | – | – | > 100 | – | > 100 | – | > 100 | > 100 | > 100 | – | –
8 | C1CCN(c2nc(=[N+]3CCCCC3)ss2)CC1 | – | > 100 | – | > 100 | – | – | – | > 100 | – | – | – | > 100 | – | > 100 | – | > 100 | > 100 | > 100 | – | –
9 | O=C(O)/C(=C/C=C/c1ccccc1)c1csc(-c2nc(/C(=C\C=C\c3ccccc3)C(=O)O)cs2)n1 | – | > 100 | – | > 100 | – | – | – | 61 | – | – | – | > 100 | – | > 100 | – | > 100 | 54.6 | 59.9 | – | –
10 | N#C/C(=C\c1cc(Cl)cc(Cl)c1)c1ccccn1 | – | 8.25 | – | > 100 | – | > 100 | – | > 100 | – | > 100 | – | > 100 | – | > 100 | – | > 100 | > 100 | – | – | –
11 | O=C(CCC(=O)C(C(=O)c1ccccc1)c1ccccc1)Nc1cccc(C(F)(F)F)c1 (stereo not given) | – | > 100 | – | > 100 | – | – | – | > 100 | – | – | – | – | – | > 100 | – | > 100 | – | > 100 | – | –
12 | COc1cc2c3c(c1OC)-c1c(ccc4c1OCO4)CC3(C#N)N(C(=O)c1ccccc1)CC2 (stereo not given) | – | > 100 | – | > 100 | – | – | – | > 100 | – | – | – | – | – | > 100 | – | > 100 | > 100 | 77.9 | – | –
13 | COc1ccc(/C=c2\sc3n(c2=O)C(N)=C(C#N)C(c2ccc(OC)cc2)C=3c2nc3ccccc3[nH]2)cc1 (stereo not given) | – | > 100 | – | > 100 | – | – | – | > 100 | – | – | – | 56.1 | – | > 100 | – | 83.6 | > 100 | 70 | – | –
14 | Cc1ccc(S(=O)(=O)OCC23CCC(CC2)C2CC23)cc1 (stereo not given) | – | > 100 | – | > 100 | – | – | – | > 100 | – | – | – | > 100 | – | > 100 | – | > 100 | > 100 | 87.5 | – | –
15 | CCC(=O)c1c(NOC2OC(COC(C)=O)C(OC(C)=O)C(OC(C)=O)C2OC(C)=O)nc(OC)n(C)c1=O (stereo not given) | – | – | – | > 100 | – | – | – | > 100 | – | – | – | > 100 | – | > 100 | – | > 100 | > 100 | – | – | –
16 | CCc1cccc(C(C)C)c1N1C(=O)C(=O)C(c2nc3ccccc3s2)C(=O)C1=O | – | > 50 | – | > 50 | – | – | – | > 50 | – | – | – | > 50 | – | > 50 | – | > 50 | > 50 | > 50 | – | –
17 | Clc1ccc(C2SCc3nc4ccccc4n32)cc1Cl (stereo not given) | – | – | – | 32.6 | – | – | – | 27.2 | – | – | – | 25.4 | – | 26 | – | 28.6 | 27.8 | 27.4 | – | –
18 | CC1(C)Cc2cc(C(=O)O)c3c(c2C1=O)COCC3 | – | > 100 | – | > 100 | – | – | – | > 100 | – | – | – | – | – | > 100 | – | > 100 | > 100 | – | – | –
19 | C1=CC=C2NCCCNC3=CC=CC=CC3=NCCCN=C2C=C1 | – | > 100 | – | > 100 | – | – | – | > 100 | – | – | – | > 100 | – | > 100 | – | > 100 | > 100 | > 100 | – | –
20 | CCc1cccc(C(C)C)c1NC(=O)C(=O)C(CC(=O)Nc1ccc(Cl)c(Cl)c1)C(=O)OC (stereo not given) | – | > 100 | – | > 100 | – | – | – | > 100 | – | – | – | > 100 | – | > 100 | – | 24.6 | > 100 | > 100 | – | –
21 | S=c1cc(S)sc2c1c(=S)sc1nc3ccccn3c(=S)c12 | – | > 100 | – | > 100 | – | – | – | > 100 | – | – | – | > 100 | – | > 100 | – | > 100 | – | > 100 | – | –
22 | COC(=O)C1=C(C)NC(C)=C(C(=O)OC)C1/C=C(Cl)/C=C/c1ccccc1 | 16.8 | 36 | 28.8 | > 100 | 18.4 | 36.7 | 16.2 | 30.5 | 24.4 | 78.5 | 17.1 | 35 | 19.2 | 41.6 | 37.3 | > 100 | 38.5 | – | 20.1 | –
